The source of these data is ChEMBL document CHEMBL1128594, “Synthesis and antimalarial activities of 12 beta-allyldeoxoartemisinin and its derivatives” (J Med Chem, 1995).

Converted amounts (≈) assume the structure as drawn.

In assay [1] the test system is Plasmodium falciparum. The assay can be described thus: In vitro antimalarial activity against drug-resistant Plasmodium falciparum D6. It is filed as functional, organism-based.
Assay [2] relates to Plasmodium falciparum. The assay can be described thus: In vitro antimalarial activity against drug-resistant Plasmodium falciparum W-2. The format is functional, organism-based.

As usually defined, the IC50 is the concentration needed to halve the response being measured. A lower IC50 goes with higher potency.

For `CC[C@H]1O[C@@H]2O[C@@]3(C)CC[C@H]4[C@H](C)CC[C@@H]([C@H]1C)[C@@]24OO3`, the concentration for half-maximal inhibition (IC50) in assay [1] was found to be 1.09 ng/mL (≈ 3.68 nM); in assay [2], 0.29 ng/mL (≈ 0.978 nM).
For `CCO[C@H]1O[C@@H]2O[C@@]3(C)CC[C@H]4[C@H](C)CC[C@@H]([C@H]1C)[C@@]24OO3` [ARTEMOTIL] the same measures were 0.34 ng/mL (≈ 1.09 nM) and 0.18 ng/mL (≈ 0.576 nM).
`C[C@@H]1CC[C@H]2[C@@H](C)CO[C@@H]3OC4(C)CC[C@@H]1[C@]32OO4` (single isomer, unassigned) [DEOXOARTEMISININ]: the IC50 stood at 1.11 ng/mL (≈ 4.14 nM) in assay [1] and 0.48 ng/mL (≈ 1.79 nM) in assay [2].
On to `C[C@@H]1CC[C@H]2[C@@H](C)C(=O)O[C@@H]3O[C@@]4(C)CC[C@@H]1[C@]32OO4` [ARTEMISININ], for which the figures for the IC50 in assay [1] and in assay [2] were 0.86 ng/mL (≈ 3.05 nM) and 0.32 ng/mL (≈ 1.13 nM), respectively.
Consider `C[C@H]1[C@@H](CCO)O[C@@H]2OC3(C)CC[C@H]4[C@H](C)CC[C@@H]1[C@@]24OO3` (single isomer, unassigned), for which the IC50 in assay [1] turned out to be 2.04 ng/mL (≈ 6.53 nM); in assay [2], 0.59 ng/mL (≈ 1.89 nM).
For `CCC[C@H]1O[C@@H]2O[C@@]3(C)CC[C@H]4[C@H](C)CC[C@@H]([C@H]1C)[C@@]24OO3` the same measures were 0.41 ng/mL (≈ 1.32 nM) and 0.16 ng/mL (≈ 0.515 nM).
`C=CC[C@H]1O[C@@H]2O[C@@]3(C)CC[C@H]4[C@H](C)CC[C@@H]([C@H]1C)[C@@]24OO3`: the results for the IC50 in assay [1] and in assay [2] were 1.07 ng/mL (≈ 3.47 nM) and 0.59 ng/mL (≈ 1.91 nM), respectively.
